Reference: ChEMBL document CHEMBL5724806, “Unraveling interindividual differences and functional consequences of gut microbial metabolism of immunosuppressants” (2024)

Legend:
Format in all cases: ADME
[1] = (§1) The drug is tested on Bacteroides vulgatus strain: DSM1447 for biotransformation under anaerobic condition. The drug concentrations were measured over 6 timepoints collected between 0 and 12 hours of incubation by liquid-chromatography-coupled mass spectrometry (LC–MS); design: dose 5 uM, timepoint 0, 1.5, 3, 6, 9, 12 hours; conditions: phocaeicola vulgatus, 5 µM
[2] = The drug is tested on Eubacterium rectale strain: DSM17629 for biotransformation under anaerobic condition. The drug concentrations were measured over 6 timepoints collected between 0 and 12 hours of incubation by liquid-chromatography-coupled mass spectrometry (LC–MS); design: dose 5 uM, timepoint 0, 1.5, 3, 6, 9, 12 hours; conditions: agathobacter rectalis, 5 µM
[3] = as §1, with “the gut metagenome community of T-05 with ENA study accession number: PRJEB31790” for “Bacteroides vulgatus strain: DSM1447”, “7” for “6”; design: dose 5 uM, timepoint 0, 0.75, 1.5, 3, 6, 9, 12 hours; conditions: 5 µM
[4] = The drug is tested on Bacteroides uniformis strain: DSM6597 for biotransformation under anaerobic condition. The drug concentrations were measured over 6 timepoints collected between 0 and 12 hours of incubation by liquid-chromatography-coupled mass spectrometry (LC–MS); design: dose 5 uM, timepoint 0, 1.5, 3, 6, 9, 12 hours; conditions: 5 µM
[5] = The drug is tested on Capnocytophaga ochracea strain: DSM7271 for biotransformation under anaerobic condition. The drug concentrations were measured over 6 timepoints collected between 0 and 12 hours of incubation by liquid-chromatography-coupled mass spectrometry (LC–MS); design: dose 5 uM, timepoint 0, 1.5, 3, 6, 9, 12 hours; conditions: 5 µM
[6] = (§2) The drug is tested on Bifidobacterium longum strain: DSM20088 for biotransformation under microaerobic condition. The drug concentrations were measured over 6 timepoints collected between 0 and 12 hours of incubation by liquid-chromatography-coupled mass spectrometry (LC–MS); design: dose 5 uM, timepoint 0, 1.5, 3, 6, 9, 12 hours; conditions: 5 µM
[7] = as §2, with “the gut metagenome community of A-09 with ENA study accession number: PRJEB31790” for “Bifidobacterium longum strain: DSM20088”, “7” for “6”; design: dose 5 uM, timepoint 0, 0.75, 1.5, 3, 6, 9, 12 hours; conditions: 5 µM
[8] = as §1, with “the gut metagenome community of A-03 with ENA study accession number: PRJEB31790” for “Bacteroides vulgatus strain: DSM1447”, “7” for “6”; design: dose 5 uM, timepoint 0, 0.75, 1.5, 3, 6, 9, 12 hours; conditions: 5 µM
[9] = The drug is tested on Streptococcus salivarius strain: DSM20560 for biotransformation under microaerobic condition. The drug concentrations were measured over 6 timepoints collected between 0 and 12 hours of incubation by liquid-chromatography-coupled mass spectrometry (LC–MS); design: dose 5 uM, timepoint 0, 1.5, 3, 6, 9, 12 hours; conditions: 5 µM
[10] = The drug is tested on Streptococcus mitis strain: DSM12643 for biotransformation under microaerobic condition. The drug concentrations were measured over 6 timepoints collected between 0 and 12 hours of incubation by liquid-chromatography-coupled mass spectrometry (LC–MS); design: dose 5 uM, timepoint 0, 1.5, 3, 6, 9, 12 hours; conditions: 5 µM
[11] = as §1, with “the gut metagenome community of P-04 with ENA study accession number: PRJEB31790” for “Bacteroides vulgatus strain: DSM1447”, “7” for “6”; design: dose 5 uM, timepoint 0, 0.75, 1.5, 3, 6, 9, 12 hours; conditions: 5 µM
[12] = The drug is tested on Lactobacillus ruminis strain: ATCC25644 for biotransformation under anaerobic condition. The drug concentrations were measured over 6 timepoints collected between 0 and 12 hours of incubation by liquid-chromatography-coupled mass spectrometry (LC–MS); design: dose 5 uM, timepoint 0, 1.5, 3, 6, 9, 12 hours; conditions: ligilactobacillus ruminis, 5 µM
[13] = The drug is tested on Streptococcus anginosus strain: DSM20563 for biotransformation under anaerobic condition. The drug concentrations were measured over 6 timepoints collected between 0 and 12 hours of incubation by liquid-chromatography-coupled mass spectrometry (LC–MS); design: dose 5 uM, timepoint 0, 1.5, 3, 6, 9, 12 hours; conditions: 5 µM
[14] = The drug is tested on Lactobacillus paracasei strain: ATCC27092 for biotransformation under anaerobic condition. The drug concentrations were measured over 6 timepoints collected between 0 and 12 hours of incubation by liquid-chromatography-coupled mass spectrometry (LC–MS); design: dose 5 uM, timepoint 0, 1.5, 3, 6, 9, 12 hours; conditions: lacticaseibacillus paracasei, 5 µM
[15] = as §1, with “the gut metagenome community of A-02 with ENA study accession number: PRJEB31790” for “Bacteroides vulgatus strain: DSM1447”, “7” for “6”; design: dose 5 uM, timepoint 0, 0.75, 1.5, 3, 6, 9, 12 hours; conditions: 5 µM
[16] = The drug is tested on Faecalibacterium prausnitzii strain: DSM17677 for biotransformation under anaerobic condition. The drug concentrations were measured over 6 timepoints collected between 0 and 12 hours of incubation by liquid-chromatography-coupled mass spectrometry (LC–MS); design: dose 5 uM, timepoint 0, 1.5, 3, 6, 9, 12 hours; conditions: faecalibacterium duncaniae, 5 µM
[17] = The drug is tested on Bacteroides fragilis strain: DSM2151 for biotransformation under anaerobic condition. The drug concentrations were measured over 6 timepoints collected between 0 and 12 hours of incubation by liquid-chromatography-coupled mass spectrometry (LC–MS); design: dose 5 uM, timepoint 0, 1.5, 3, 6, 9, 12 hours; conditions: 5 µM
[18] = The drug is tested on Streptococcus anginosus strain: DSM20563 for biotransformation under microaerobic condition. The drug concentrations were measured over 6 timepoints collected between 0 and 12 hours of incubation by liquid-chromatography-coupled mass spectrometry (LC–MS); design: dose 5 uM, timepoint 0, 1.5, 3, 6, 9, 12 hours; conditions: 5 µM
[19] = The drug is tested on Bacteroides thetaiotaomicron strain: DSM2079 for biotransformation under anaerobic condition. The drug concentrations were measured over 6 timepoints collected between 0 and 12 hours of incubation by liquid-chromatography-coupled mass spectrometry (LC–MS); design: dose 5 uM, timepoint 0, 1.5, 3, 6, 9, 12 hours; conditions: 5 µM
[20] = The drug is tested on Gemella morbillorum strain: DSM20572 for biotransformation under microaerobic condition. The drug concentrations were measured over 6 timepoints collected between 0 and 12 hours of incubation by liquid-chromatography-coupled mass spectrometry (LC–MS); design: dose 5 uM, timepoint 0, 1.5, 3, 6, 9, 12 hours; conditions: 5 µM
[21] = as §2, with “the gut metagenome community of T-03 with ENA study accession number: PRJEB31790” for “Bifidobacterium longum strain: DSM20088”, “7” for “6”; design: dose 5 uM, timepoint 0, 0.75, 1.5, 3, 6, 9, 12 hours; conditions: 5 µM
[22] = The drug is tested on Lactobacillus reuteri strain: DSM20016 for biotransformation under anaerobic condition. The drug concentrations were measured over 6 timepoints collected between 0 and 12 hours of incubation by liquid-chromatography-coupled mass spectrometry (LC–MS); design: dose 5 uM, timepoint 0, 1.5, 3, 6, 9, 12 hours; conditions: limosilactobacillus reuteri, 5 µM
[23] = The drug is tested on Lactobacillus gasseri strain: DSM20243 for biotransformation under microaerobic condition. The drug concentrations were measured over 6 timepoints collected between 0 and 12 hours of incubation by liquid-chromatography-coupled mass spectrometry (LC–MS); design: dose 5 uM, timepoint 0, 1.5, 3, 6, 9, 12 hours; conditions: 5 µM
[24] = as §2, with “the gut metagenome community of A-01 with ENA study accession number: PRJEB31790” for “Bifidobacterium longum strain: DSM20088”, “7” for “6”; design: dose 5 uM, timepoint 0, 0.75, 1.5, 3, 6, 9, 12 hours; conditions: 5 µM
[25] = The drug is tested on Parabacteroides distasonis strain: DSM20701 for biotransformation under anaerobic condition. The drug concentrations were measured over 6 timepoints collected between 0 and 12 hours of incubation by liquid-chromatography-coupled mass spectrometry (LC–MS); design: dose 5 uM, timepoint 0, 1.5, 3, 6, 9, 12 hours; conditions: 5 µM
[26] = as §2, with “the gut metagenome community of T-02 with ENA study accession number: PRJEB31790” for “Bifidobacterium longum strain: DSM20088”, “7” for “6”; design: dose 5 uM, timepoint 0, 0.75, 1.5, 3, 6, 9, 12 hours; conditions: 5 µM
[27] = as §1, with “the gut metagenome community of A-07 with ENA study accession number: PRJEB31790” for “Bacteroides vulgatus strain: DSM1447”, “7” for “6”; design: dose 5 uM, timepoint 0, 0.75, 1.5, 3, 6, 9, 12 hours; conditions: 5 µM
[28] = The drug is tested on Bacteroides ovatus strain: ATCC 8483 for biotransformation under anaerobic condition. The drug concentrations were measured over 6 timepoints collected between 0 and 12 hours of incubation by liquid-chromatography-coupled mass spectrometry (LC–MS); design: dose 5 uM, timepoint 0, 1.5, 3, 6, 9, 12 hours; conditions: 5 µM
[29] = as §1, with “the gut metagenome community of P-03 with ENA study accession number: PRJEB31790” for “Bacteroides vulgatus strain: DSM1447”, “7” for “6”; design: dose 5 uM, timepoint 0, 0.75, 1.5, 3, 6, 9, 12 hours; conditions: 5 µM
[30] = as §2, with “the gut metagenome community of T-04 with ENA study accession number: PRJEB31790” for “Bifidobacterium longum strain: DSM20088”, “7” for “6”; design: dose 5 uM, timepoint 0, 0.75, 1.5, 3, 6, 9, 12 hours; conditions: 5 µM

SMILES: CCC(C)(C)C(=O)O[C@H]1C[C@@H](C)C=C2C=C[C@H](C)[C@H](CC[C@@H]3C[C@@H](O)CC(=O)O3)[C@H]21 [SIMVASTATIN]
- Bacterial Biotransformation [1]: Compound NOT metabolized
- Bacterial Biotransformation [2]: Compound NOT metabolized
- Bacterial Biotransformation [3]: Compound NOT metabolized
- Bacterial Biotransformation [4]: Compound NOT metabolized
- Bacterial Biotransformation [5]: Compound NOT metabolized
- Bacterial Biotransformation [6]: Compound NOT metabolized
- Bacterial Biotransformation [7]: Compound NOT metabolized
- Bacterial Biotransformation [8]: Compound NOT metabolized
- Bacterial Biotransformation [9]: Compound NOT metabolized
- Bacterial Biotransformation [10]: Compound NOT metabolized
- Bacterial Biotransformation [11]: Compound NOT metabolized
- Bacterial Biotransformation [12]: Compound NOT metabolized
- Bacterial Biotransformation [13]: Compound NOT metabolized
- Bacterial Biotransformation [14]: Compound NOT metabolized
- Bacterial Biotransformation [15]: Compound metabolized
- Bacterial Biotransformation [16]: Compound NOT metabolized
- Bacterial Biotransformation [17]: Compound NOT metabolized
- Bacterial Biotransformation [18]: Compound NOT metabolized
- Bacterial Biotransformation [19]: Compound metabolized
- Bacterial Biotransformation [20]: Compound NOT metabolized
- Bacterial Biotransformation [21]: Compound NOT metabolized
- Bacterial Biotransformation [22]: Compound NOT metabolized
- Bacterial Biotransformation [23]: Compound NOT metabolized
- Bacterial Biotransformation [24]: Compound NOT metabolized
- Bacterial Biotransformation [25]: Compound NOT metabolized
- Bacterial Biotransformation [26]: Compound NOT metabolized
- Bacterial Biotransformation [27]: Compound NOT metabolized
- Bacterial Biotransformation [28]: Compound NOT metabolized
- Bacterial Biotransformation [29]: Compound NOT metabolized
- Bacterial Biotransformation [30]: Compound NOT metabolized
